Assay results: ChEMBL document CHEMBL1201862, “PubChem BioAssay data set” (2004)
Activity calls are given as the source filed them.

Key:
[1] = viability of uninfected HEp-2 cells – cell-based, HTS, cytotoxicity control for RSV inhibitor project, dose response (AID 2410); assay type: functional; conditions: human respiratory syncytial virus
Vero = experiment: cells; assay type: functional, cell-based; conditions: Chlorocebus sabaeus
[2] = molecular target: 72 kDa type IV collagenase (Homo sapiens, UniProt P08253); experiment: Dose Response validation of uHTS RPN11 inhibitor hits using a MMP-2 Fluorescence assay.; assay type: functional
Chain of 72 kDa type IV collagenase (P08253 whole entry): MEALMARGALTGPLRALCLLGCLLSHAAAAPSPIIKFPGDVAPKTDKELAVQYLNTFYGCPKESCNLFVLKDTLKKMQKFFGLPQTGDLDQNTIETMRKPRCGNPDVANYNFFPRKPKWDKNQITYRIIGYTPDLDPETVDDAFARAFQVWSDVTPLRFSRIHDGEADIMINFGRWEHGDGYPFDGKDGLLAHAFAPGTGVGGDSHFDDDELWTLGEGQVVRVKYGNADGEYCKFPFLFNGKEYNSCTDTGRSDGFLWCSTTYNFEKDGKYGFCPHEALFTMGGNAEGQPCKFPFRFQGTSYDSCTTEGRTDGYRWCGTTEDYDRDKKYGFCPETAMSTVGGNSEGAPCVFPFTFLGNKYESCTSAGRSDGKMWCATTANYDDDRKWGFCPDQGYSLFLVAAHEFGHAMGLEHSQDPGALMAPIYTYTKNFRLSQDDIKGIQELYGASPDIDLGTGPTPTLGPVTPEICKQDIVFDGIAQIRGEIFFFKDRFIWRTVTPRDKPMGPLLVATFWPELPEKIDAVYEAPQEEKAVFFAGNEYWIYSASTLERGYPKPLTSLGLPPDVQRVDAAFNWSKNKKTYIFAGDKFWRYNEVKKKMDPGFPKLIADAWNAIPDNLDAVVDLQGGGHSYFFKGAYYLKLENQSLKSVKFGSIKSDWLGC

[3] = Counterscreen for IDE inhibitors: Luminescence-based cell-based high throughput dose response assay to identify compounds that are cytotoxic to HEK cells. [Related pubchem assays: 434962 (Primary screen (IDE inhibitors in singlicate)), 449730 (Counterscreen (Cytotoxicity in triplicate)), 435028 (Confirmation (IDE inhibitors in triplicate)) …; assay type: functional; conditions: HEK293
Insulin-degrading enzyme = molecular target: T1, Insulin-degrading enzyme (Homo sapiens, UniProt P14735); experiment: Dose Response: Fluorescence polarization-based cell-based high throughput dose response assay for inhibitors of insulin-degrading enzyme (IDE). [Related pubchem assays: 434962 (Primary screen (IDE inhibitors in singlicate)), 449730 (Counterscreen (Cytotoxicity in triplicate)), 435028 (Confirmation (IDE inhibitors in triplicate)), 434984 (Summary …; assay type: functional
T1 sequence (P14735 whole entry): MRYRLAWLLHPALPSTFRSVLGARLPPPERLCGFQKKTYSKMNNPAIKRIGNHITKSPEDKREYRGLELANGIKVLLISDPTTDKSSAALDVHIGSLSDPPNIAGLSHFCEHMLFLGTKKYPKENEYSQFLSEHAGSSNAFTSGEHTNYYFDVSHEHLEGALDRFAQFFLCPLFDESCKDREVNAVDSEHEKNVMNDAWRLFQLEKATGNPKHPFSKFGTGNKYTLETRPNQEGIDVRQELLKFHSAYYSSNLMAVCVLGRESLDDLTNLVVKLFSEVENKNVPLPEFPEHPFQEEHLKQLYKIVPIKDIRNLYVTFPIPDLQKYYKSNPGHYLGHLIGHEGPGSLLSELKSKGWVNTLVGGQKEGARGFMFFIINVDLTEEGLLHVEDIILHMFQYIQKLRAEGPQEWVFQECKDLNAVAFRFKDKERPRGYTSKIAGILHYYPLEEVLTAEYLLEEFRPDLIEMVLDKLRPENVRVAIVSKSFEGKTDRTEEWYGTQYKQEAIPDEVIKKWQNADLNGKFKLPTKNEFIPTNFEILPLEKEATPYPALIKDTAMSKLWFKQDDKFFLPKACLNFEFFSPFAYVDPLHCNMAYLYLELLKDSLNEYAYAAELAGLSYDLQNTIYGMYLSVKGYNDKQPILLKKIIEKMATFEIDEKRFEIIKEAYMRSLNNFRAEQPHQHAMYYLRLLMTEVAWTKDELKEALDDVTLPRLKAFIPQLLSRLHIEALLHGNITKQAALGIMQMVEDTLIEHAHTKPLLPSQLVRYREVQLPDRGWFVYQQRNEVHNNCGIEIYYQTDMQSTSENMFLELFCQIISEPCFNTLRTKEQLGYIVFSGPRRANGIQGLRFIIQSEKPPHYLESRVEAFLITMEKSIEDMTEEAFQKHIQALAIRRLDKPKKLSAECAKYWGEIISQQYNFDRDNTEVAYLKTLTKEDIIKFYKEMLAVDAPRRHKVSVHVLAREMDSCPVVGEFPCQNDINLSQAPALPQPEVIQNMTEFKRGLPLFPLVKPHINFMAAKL

[4] = molecular target: 26S proteasome non-ATPase regulatory subunit 14 (Homo sapiens, UniProt O00487); experiment: inhibition of proteasome subunit RPN11 – biochemical, fluorescence polarization, uHTS hits, confirmation (AID 602368); assay type: functional
Chain of 26S proteasome non-ATPase regulatory subunit 14 (O00487 whole entry): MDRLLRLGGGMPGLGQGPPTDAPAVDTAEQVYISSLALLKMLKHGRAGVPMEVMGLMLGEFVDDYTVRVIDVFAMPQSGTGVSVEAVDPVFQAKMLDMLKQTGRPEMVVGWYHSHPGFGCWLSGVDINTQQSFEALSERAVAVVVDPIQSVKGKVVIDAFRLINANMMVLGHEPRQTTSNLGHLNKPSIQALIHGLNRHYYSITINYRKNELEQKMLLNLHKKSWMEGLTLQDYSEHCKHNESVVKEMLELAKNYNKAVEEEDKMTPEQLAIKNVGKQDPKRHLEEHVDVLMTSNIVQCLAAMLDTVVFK

Prothrombin = Prothrombin (Bos taurus, UniProt P00735); experiment: thrombin protease inhibitors – biochemical, fluorescence polarization, uHTS hits, dose response (AID 602369); assay type: functional
[5] = molecular target: Heat shock cognate 71 kDa protein (Homo sapiens, UniProt P11142); experiment: In Vitro Hsc70 Dose Response Fluorescence Polarization Assay. [Related pubchem assays: 1072 ]
Chain of Heat shock cognate 71 kDa protein (P11142 whole entry): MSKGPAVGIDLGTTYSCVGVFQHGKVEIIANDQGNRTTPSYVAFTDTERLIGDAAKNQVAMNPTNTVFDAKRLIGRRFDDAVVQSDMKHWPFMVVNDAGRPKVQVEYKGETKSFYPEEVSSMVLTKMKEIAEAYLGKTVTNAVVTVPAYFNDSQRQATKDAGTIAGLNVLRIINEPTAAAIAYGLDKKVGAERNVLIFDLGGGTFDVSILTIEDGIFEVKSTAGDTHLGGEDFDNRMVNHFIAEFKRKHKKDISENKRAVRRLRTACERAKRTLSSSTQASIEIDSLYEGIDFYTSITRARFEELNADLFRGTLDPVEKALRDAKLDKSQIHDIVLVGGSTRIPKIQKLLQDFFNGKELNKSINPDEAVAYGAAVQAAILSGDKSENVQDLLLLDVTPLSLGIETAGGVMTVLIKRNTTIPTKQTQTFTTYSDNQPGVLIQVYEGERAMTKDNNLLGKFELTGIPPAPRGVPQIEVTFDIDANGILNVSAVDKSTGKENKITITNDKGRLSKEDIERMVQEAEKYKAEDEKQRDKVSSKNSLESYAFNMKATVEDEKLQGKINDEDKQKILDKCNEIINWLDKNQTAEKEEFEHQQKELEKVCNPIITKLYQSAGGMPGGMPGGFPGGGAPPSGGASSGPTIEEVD

[6] = molecular target: Glyceraldehyde-3-phosphate dehydrogenase (Homo sapiens, UniProt P04406)
Chain of Glyceraldehyde-3-phosphate dehydrogenase (P04406 whole entry): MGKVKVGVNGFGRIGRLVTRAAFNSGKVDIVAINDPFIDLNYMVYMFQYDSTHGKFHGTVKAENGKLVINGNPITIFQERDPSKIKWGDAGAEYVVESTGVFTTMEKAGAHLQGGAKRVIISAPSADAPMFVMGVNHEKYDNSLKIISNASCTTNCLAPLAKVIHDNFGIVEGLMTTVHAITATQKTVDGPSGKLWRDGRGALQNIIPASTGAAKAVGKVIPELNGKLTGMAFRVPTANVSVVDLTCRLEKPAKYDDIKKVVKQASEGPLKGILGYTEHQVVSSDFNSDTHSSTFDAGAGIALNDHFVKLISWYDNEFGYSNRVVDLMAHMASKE

[7] = molecular target: Heat shock 70 kDa protein 1A (Homo sapiens, UniProt P0DMV8); experiment: inhibition of Hsp70 binding activity – biochemical, fluorescence polarization, SAR follow-up (AID 1072)
Chain of Heat shock 70 kDa protein 1A (P0DMV8 whole entry): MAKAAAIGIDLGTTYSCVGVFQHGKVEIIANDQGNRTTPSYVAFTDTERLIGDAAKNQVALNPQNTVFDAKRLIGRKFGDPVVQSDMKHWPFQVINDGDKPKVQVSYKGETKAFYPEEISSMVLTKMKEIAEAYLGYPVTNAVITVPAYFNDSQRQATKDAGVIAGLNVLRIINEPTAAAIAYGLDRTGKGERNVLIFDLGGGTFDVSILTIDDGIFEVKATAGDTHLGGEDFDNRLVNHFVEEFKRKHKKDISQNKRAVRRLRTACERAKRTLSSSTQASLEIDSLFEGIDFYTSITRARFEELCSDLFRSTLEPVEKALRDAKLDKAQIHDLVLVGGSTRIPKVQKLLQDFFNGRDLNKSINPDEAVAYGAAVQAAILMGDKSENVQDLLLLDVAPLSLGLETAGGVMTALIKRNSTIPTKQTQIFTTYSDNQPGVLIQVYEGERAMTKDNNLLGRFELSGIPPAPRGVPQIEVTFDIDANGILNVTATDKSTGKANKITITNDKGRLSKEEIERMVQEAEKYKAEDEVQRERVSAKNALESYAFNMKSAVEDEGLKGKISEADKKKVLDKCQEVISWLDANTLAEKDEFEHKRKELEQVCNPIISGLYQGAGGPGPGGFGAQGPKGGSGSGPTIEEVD

Large T antigen = Large T antigen (Simian virus 40, UniProt P03070); assay type: functional, Betapolyomavirus macacae;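 note: Confirmatory-stage PubChem screen for compounds that inhibit SV40 T antigen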
Chain of Large T antigen (P03070 whole entry): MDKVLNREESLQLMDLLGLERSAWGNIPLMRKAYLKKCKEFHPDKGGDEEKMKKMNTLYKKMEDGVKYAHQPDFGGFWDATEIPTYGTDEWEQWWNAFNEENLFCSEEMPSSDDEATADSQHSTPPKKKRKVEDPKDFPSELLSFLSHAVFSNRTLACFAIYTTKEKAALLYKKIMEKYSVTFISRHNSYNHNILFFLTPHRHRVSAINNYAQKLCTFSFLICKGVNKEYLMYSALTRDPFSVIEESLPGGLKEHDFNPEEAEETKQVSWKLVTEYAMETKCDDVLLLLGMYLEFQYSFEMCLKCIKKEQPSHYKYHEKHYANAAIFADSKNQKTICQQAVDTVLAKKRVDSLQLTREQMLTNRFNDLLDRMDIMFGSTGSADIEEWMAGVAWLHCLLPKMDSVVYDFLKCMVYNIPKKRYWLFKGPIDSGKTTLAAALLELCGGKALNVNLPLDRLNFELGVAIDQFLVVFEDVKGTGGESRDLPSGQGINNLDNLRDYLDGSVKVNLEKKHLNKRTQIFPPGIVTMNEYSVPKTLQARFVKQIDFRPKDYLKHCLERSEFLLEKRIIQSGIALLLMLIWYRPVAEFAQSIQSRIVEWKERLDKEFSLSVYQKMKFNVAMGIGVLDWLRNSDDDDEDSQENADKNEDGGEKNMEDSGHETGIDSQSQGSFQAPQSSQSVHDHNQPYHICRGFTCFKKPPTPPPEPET

[8] = Trypanosoma cruzi growth suppression in host cells – NIH3T3 host cells, beta-gal luminescence, confirmation (AID 2044); assay type: functional, cell-based;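 note: intracellular parasites grown in NIH/3T3 mouse fibroblasts as host cells; luminescent beta-galactosidase reporter signal from transgenic T. cruzi replicating inside host cells; inhibitors lower the luminescence signal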
[9] = molecular target: T2, DNA repair protein RAD52 homolog (Homo sapiens, UniProt P43351); assay type: functional, biochemical
T2 sequence (P43351 whole entry): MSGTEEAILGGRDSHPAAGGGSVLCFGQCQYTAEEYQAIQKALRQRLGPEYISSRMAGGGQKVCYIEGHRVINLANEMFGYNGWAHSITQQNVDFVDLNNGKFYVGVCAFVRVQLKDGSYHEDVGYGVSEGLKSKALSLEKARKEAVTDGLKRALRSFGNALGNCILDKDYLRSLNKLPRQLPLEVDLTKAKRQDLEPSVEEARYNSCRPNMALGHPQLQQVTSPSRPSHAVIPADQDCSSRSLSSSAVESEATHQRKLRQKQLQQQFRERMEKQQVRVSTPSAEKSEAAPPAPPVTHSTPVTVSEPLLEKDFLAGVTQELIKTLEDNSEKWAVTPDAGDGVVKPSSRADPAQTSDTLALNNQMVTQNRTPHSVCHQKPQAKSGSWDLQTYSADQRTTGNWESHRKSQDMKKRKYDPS

[10] = molecular target: Luciferin 4-monooxygenase (Photinus pyralis, UniProt P08659); experiment: Counter Screen for Luciferase-based Assay Positives. [Related pubchem assays: 620, 618, 411 ]
Chain of Luciferin 4-monooxygenase (P08659 whole entry): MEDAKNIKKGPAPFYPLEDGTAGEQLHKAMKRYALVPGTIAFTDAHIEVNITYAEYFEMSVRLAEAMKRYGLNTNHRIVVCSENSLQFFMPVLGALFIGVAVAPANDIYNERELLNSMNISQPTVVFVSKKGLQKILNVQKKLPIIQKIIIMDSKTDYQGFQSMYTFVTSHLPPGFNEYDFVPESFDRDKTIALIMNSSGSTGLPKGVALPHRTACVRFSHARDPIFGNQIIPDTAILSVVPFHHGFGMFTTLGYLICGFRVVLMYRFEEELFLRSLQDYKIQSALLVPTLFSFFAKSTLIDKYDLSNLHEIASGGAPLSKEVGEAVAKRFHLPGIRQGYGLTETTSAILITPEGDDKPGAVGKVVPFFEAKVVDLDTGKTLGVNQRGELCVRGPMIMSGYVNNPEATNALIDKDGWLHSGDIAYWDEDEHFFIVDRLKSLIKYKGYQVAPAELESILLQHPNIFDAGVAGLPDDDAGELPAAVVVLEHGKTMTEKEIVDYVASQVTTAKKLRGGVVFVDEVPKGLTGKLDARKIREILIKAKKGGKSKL

INS1 = experiment: INS-1E survival protection against cytokine death – cell-based, luminescence, retest, dose response (AID 449756); assay type: functional; conditions: Rattus norvegicus, INS1;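 note: cell death triggered by IL-1 beta plus TNF-alpha plus IFN-gamma mixture; protective hits raise ATP signal compared with cytokine alone wells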
[11] = Luminescence Cell-Based Dose Response HTS to Identify Activators of Luciferase Translation or Activity in H4 […] Cells. [Related pubchem assays: 1829 (Project Summary), 1814 (Primary HTS)]; assay type: functional
H4 = experiment: Luminescence Cell-Based Dose Response HTS to Identify Activators of 5'UTR Stem-Loop Driven Prion Protein mRNA Translation in H4 Neuroglioblastoma Cells. [Related pubchem assays: 1829 (Project Summary), 1814 (Primary HTS)]; assay type: functional; conditions: Homo sapiens
[12] = molecular target: T3, DNA repair and recombination protein RAD54-like (Homo sapiens, UniProt Q92698); experiment: RAD54 Holliday junction migration blockers – biochemical, fluorescence, cherry-picked samples, dose series, confirmation (AID 651657); assay type: functional
T3 sequence (Q92698 whole entry): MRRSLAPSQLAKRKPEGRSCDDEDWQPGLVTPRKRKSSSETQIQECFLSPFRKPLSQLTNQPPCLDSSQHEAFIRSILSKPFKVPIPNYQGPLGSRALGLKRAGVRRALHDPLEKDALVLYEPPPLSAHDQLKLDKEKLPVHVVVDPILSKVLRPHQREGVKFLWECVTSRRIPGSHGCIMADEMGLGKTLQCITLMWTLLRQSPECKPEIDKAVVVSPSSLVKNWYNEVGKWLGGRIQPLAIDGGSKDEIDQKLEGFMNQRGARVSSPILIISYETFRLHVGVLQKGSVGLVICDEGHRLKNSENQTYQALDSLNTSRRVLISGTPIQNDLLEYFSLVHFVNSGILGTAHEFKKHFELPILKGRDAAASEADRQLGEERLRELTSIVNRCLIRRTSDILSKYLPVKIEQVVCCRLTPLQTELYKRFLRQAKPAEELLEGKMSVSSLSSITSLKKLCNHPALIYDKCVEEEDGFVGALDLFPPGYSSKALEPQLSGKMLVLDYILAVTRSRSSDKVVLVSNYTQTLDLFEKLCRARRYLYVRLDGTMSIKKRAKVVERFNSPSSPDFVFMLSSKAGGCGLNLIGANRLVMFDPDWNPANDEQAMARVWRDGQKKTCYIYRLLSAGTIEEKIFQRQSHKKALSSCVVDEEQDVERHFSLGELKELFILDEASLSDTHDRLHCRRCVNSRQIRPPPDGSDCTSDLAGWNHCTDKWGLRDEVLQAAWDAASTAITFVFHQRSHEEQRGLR

HT-1080 = experiment: HT1080 cell viability loss – fluorescence readout (AID 620); assay type: functional, cell-based; conditions: Homo sapiens
Bcl-2-like protein 10 = molecular target: T4, Bcl-2-like protein 10 (Homo sapiens, UniProt Q9HD36); experiment: Bcl-B/TR3 peptide binding disruption – biochemical, fluorescence polarization, FITC-TR3 peptide, selectivity assay for Bfl-1 inhibitor project, primary screen (AID 748);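 note: fluorescence polarization from a fluorescein-labelled TR3 peptide binding purified Bcl-B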
T4 sequence (Q9HD36 whole entry): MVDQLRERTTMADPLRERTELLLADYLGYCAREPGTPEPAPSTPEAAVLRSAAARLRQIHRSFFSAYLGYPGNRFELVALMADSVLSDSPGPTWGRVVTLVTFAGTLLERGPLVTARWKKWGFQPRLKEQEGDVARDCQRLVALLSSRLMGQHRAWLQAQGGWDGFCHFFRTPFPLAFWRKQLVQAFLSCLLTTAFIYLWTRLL

[13] = Luminescence Cell-Based Dose Confirmation HTS to Identify Activators of 5'UTR Stem-Loop Driven Alpha-Synuclein mRNA Translation in H4 Neuroglioblastoma Cells. [Related pubchem assays: 1829 (Project Summary), 1814 (Primary HTS)]; assay type: functional
[14] = NIH3T3 cell viability loss – ATP luminescence, mouse fibroblasts, counter-screen, dose response (AID 2010); assay type: functional, cell-based;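 note: cells exposed to compound for about 90 hours before reading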
[15] = molecular target: T5, Short transient receptor potential channel 4 (Mus musculus, UniProt Q9QUQ5); experiment: block of DAMGO-driven TRPC4 calcium entry – cell-based, HEK293 TRPC4/mu-opioid, Fluo-4 calcium, dose response (AID 434942); assay type: functional;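 note: potency of inhibitors blocking the TRPC4 calcium response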
T5 sequence (Q9QUQ5 whole entry): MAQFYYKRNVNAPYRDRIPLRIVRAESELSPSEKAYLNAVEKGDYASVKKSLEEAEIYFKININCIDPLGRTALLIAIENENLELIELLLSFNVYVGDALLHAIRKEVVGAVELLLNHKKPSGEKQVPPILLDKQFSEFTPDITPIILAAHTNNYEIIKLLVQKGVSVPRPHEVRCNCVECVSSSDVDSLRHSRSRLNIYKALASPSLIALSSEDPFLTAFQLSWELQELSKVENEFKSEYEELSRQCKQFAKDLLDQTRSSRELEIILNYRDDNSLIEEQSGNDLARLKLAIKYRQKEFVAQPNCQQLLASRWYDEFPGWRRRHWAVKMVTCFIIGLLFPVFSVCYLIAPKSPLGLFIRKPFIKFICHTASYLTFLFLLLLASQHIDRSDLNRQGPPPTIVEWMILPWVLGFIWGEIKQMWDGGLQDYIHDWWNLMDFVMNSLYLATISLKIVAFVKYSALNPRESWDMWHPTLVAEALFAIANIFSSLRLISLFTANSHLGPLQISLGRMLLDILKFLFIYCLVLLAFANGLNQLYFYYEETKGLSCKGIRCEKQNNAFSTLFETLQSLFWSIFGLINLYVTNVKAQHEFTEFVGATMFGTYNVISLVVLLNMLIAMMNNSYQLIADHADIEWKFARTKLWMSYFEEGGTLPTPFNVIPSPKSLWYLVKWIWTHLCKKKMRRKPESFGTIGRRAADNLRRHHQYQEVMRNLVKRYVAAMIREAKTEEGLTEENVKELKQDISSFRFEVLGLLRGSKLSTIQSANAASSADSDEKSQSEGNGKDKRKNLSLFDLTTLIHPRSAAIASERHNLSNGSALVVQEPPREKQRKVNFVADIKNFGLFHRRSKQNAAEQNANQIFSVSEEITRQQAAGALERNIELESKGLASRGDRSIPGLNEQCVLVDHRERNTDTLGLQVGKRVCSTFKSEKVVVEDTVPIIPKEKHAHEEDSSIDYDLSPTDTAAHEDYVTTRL

Cc1ccc(C(=O)Nc2ccccc2SCC2CSc3nc4ccccc4c(=O)n32)cc1 (centres undefined)
IC50 (cells): 11.4 µM (active)
CC50 [1]: 27.7 µM (active)
IC50 (Vero): 10.4 µM (active)

COc1ccc(/N=C\c2oc3ccc4ccccc4c3c2O)cc1
IC50 [2]: > 100 µM (inactive)
IC50 [3]: > 55.7 µM (not active)
IC50 (Insulin-degrading enzyme): > 55.9 µM (not active)
IC50 [4]: 10 µM (active)
IC50 (Prothrombin): 3.81 µM (active)

O=C(O)/C=C/c1c2ccc(=O)c(O)c-2oc2c(O)c(O)ccc12
IC50 [5]: 2.73 µM (active)
IC50 [6]: 15.8 µM (active)
IC50 [7]: 0.332 µM (active)

Oc1ccc(Nc2nc(N3CCCC3)c3ccccc3n2)cc1
IC50 (Large T antigen): 4.72 µM (active)
EC50 [8]: 2.11 µM (active)
AC50 [9]: 13.3 µM (active)
EC50 [10]: < 0.2 µM (active)
AC50 (INS1): 7.85 µM (active)
EC50 [11]: 12.9 µM (active)
EC50 (H4): > 120 µM (not active)
AC50 [12]: 6.91 µM (active)
EC50 (HT-1080): 25.7 µM (active)
IC50 (Bcl-2-like protein 10): 43.9 µM (active)
EC50 [13]: > 120 µM (not active)
EC50 [14]: 9.1 µM (active)
EC50 [15]: 5.96 µM (active)
